Molecules are shown by their SMILES.

In one data set the test system is HEK293T cells. As to the kind of experiment: CellTiter-Glo cytotoxicity assay in HEK293T cells. The class given is cell-based, human. To be noted: 24 h, 25 μM and 8.3 μM. On the procedure: (§1) Cytotoxicity induced by the compounds in HEK293T cells and primary human calvarial osteoblasts (HCO) (ScienCell Research Laboratories, San Diego, CA) were tested using the […]-GLO™ Luminescent Cell Viability Assay (Promega, Madison, WI). This is a luminescence-based assay that determines viable cells by measuring cellular adenosine triphosphate (ATP) production. The luciferase enzyme requires ATP to catalyze the conversion of beetle luciferin to oxyluciferin and light. Thus, luciferase activity is proportional to ATP accumulation in the cells. For this assay, 96-well flat-bottom opaque plates seeded with HEK293T cells at 5,000 cells/well and HCO cells at 3,000 cells/well in 100 μL/well of growth medium (DMEM, 10% FBS, 1× Penicillin/Streptomycin). After incubating overnight at 37° C., 5% CO2 to allow attachment, cells were treated with 1 μL/well of compound (25-0.1 μM) or DMSO vehicle and incubated an additional 24 hours. Then cells were equilibrated for 30 minutes at room temperature and 100 μL/well of […]-GLO™ Reagent was added. Plates were placed on an orbital shaker for 2 minutes and incubated at room temperature for 10 minutes to stabilize the luminescent signal, which was read immediately after on a CLARIOstar plate reader (BMG Labtech, Germany). […] The HEK293T results represent the means±SEM of 3 technical replicates. The HCO results represent the means±SEM of 3 independent experiments.
A general note: ATP-based viability assays read luminescence as a measure of living cells.

The next data set addresses T1, mouse RXFP2 (Mus musculus, UniProt Q91ZZ5).
T1 construct: expressed in transfected cells; host or cells: HEK-CRE-Luc (transient, Lipofectamine2000)
Put plainly: Luciferase cAMP assay in HEK-CRE-Luc cells transiently transfected with mouse RXFP2. The class given is cell-based. To be noted: 10 μM-[…], compared with human RXFP2 response. On the procedure:
It was of interest if the RXFP2 agonists of formula (I) activate the mouse RXFP2 receptor. HEK-CRE-Luc cells transiently transfected with mouse RXFP2 were used to test agonist activity by measuring induction of cAMP. For this assay, cells were seeded in 6-well flat-bottom clear plates at 0.6 million cells/well in 2 mL/well of growth medium (DMEM, 10% FBS, 1× Pen/Strep) and allowed to attach overnight at 37° C., 5% CO2. The next morning, cells were transfected with 2 μg of plasmid (human or mouse RXFP2) and 6 μL of Lipofectamine2000 (Invitrogen, Waltham, MA) in a total volume of 200 μl/well OPTI-MEM™ I (Thermo Fisher, Waltham, MA) reduced serum medium and incubated an additional 24 hours. The transfected cells were then harvested and seeded in 96-well flat-bottom opaque plates at 30,000 cells/well in 60 μL/well of serum-free DMEM medium and incubated overnight to attach. The next morning, cells were treated with 1 μL/well of compound (10 μM-1.2 nM), 2 μM forskolin, or DMSO vehicle, and with 4 μL of positive control INSL3 (100-0.01 nM) (Phoenix Pharmaceuticals, Burlingame, CA) or vehicle serum-free DMEM. […] Plates were incubated for 40 minutes at room temperature protected from light, and the signal was read on a CLARIOstar plate reader (BMG Labtech, Germany). […]
For orientation: cAMP levels reflect the balance of adenylyl cyclase and phosphodiesterase activity.

A further data set concerns the target T2, RXFP1 (Homo sapiens, UniProt Q9HBX9).
T2 construct: expressed in transfected cells
T2 sequence (Q9HBX9 1-757): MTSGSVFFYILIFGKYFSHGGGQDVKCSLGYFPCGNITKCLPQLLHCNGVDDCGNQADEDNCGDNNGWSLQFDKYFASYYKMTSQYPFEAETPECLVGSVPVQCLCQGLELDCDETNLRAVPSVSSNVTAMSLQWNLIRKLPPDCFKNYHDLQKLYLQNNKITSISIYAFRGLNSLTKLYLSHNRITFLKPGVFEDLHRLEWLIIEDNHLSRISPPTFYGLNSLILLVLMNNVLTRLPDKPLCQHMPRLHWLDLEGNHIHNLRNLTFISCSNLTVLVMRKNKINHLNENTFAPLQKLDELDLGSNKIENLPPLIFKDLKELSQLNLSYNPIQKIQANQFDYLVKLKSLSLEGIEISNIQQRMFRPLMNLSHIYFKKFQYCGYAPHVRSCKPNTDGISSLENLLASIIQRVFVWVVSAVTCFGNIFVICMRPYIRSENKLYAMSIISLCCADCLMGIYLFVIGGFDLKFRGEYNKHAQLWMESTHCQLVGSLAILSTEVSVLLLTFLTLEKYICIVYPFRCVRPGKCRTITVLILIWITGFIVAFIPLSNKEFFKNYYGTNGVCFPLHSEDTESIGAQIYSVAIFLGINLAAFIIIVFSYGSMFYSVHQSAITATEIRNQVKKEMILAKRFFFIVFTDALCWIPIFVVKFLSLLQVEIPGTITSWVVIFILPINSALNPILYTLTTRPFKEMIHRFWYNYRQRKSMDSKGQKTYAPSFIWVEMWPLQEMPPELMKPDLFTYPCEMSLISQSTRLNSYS
Put plainly: HTRF cAMP counter-screen in HEK-RXFP1 cells. The class given is cell-based. To be noted: compound 10 μM-[…], IBMX 200 μM. From the text: HEK293T cells stably transfected with RXFP1 (HEK-RXFP1) were used to test compound specificity towards the RXFP2 receptor using the HTRF Gs dynamic cAMP assay kit (PerkinElmer, Waltham, MA). This is a competitive immunoassay where a time-resolved fluorescence resonance energy (TR-FRET) signal is produced when exogenous d2-labeled cAMP (acceptor) binds to europium cryptate-conjugated anti-cAMP antibody (donor). No signal is produced when endogenous cAMP binds to the antibody. Thus, the TR-FRET signal is inversely proportional to the concentration of cAMP produced by the cells. The HTRF cAMP assay was carried out in the presence of isobutylmethylxanthine phosphodiesterase inhibitor (IBMX) at 200 μM to amplify the cAMP signal. For this assay, cells were seeded in 96-well flat-bottom opaque plates at 30,000 cells/well in 60 μL/well of serum-free DMEM medium and allowed to attach overnight at 37° C., 5% CO2. The next morning, cells were treated with 1 μL/well of compound (10 μM-1.2 nM), 1 μM forskolin, or DMSO vehicle. Cells were also treated with 4 μL of 10 nM Relaxin2 (Peprotech, Cranbury, NJ) as a positive control or vehicle (serum-free DMEM+IBMX). […] Cells were incubated for 1 hour at room temperature, and then the signal was read on a CLARIOstar plate reader (BMG Labtech, Germany). […]

Data set [1] deals with primary human calvarial osteoblasts (HCO). As to the kind of experiment: CellTiter-Glo cytotoxicity assay in HCO cells. It counts as cell-based. To be noted: 24 h. The protocol:
as §1

The mark [2] stands for this setting: lower concentrations than 25 μM.

T1 sequence (Q91ZZ5 whole entry): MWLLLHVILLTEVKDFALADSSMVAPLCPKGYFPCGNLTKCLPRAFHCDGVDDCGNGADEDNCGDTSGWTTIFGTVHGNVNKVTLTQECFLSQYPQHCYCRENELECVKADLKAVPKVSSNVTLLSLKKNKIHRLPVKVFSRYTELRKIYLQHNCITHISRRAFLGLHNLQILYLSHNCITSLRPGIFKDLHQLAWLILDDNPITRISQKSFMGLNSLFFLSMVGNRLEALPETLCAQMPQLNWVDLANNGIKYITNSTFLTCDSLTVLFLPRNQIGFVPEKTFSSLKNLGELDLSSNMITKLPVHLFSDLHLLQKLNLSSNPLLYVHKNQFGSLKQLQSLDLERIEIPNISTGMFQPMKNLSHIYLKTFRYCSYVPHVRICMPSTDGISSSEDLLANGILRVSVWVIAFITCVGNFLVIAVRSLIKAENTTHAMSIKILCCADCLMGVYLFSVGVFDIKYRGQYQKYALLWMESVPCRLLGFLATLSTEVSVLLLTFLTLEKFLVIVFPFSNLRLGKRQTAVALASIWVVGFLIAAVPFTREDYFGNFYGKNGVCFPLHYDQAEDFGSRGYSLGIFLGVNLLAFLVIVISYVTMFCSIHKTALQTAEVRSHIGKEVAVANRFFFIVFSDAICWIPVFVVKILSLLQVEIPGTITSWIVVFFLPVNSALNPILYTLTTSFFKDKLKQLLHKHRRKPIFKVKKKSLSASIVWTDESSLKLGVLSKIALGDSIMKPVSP

As to `O=C1Nc2ccc(-c3cccc(C(F)(F)F)c3)cc2C(=O)N2CCN(C(=O)COc3ccc(OC(F)(F)F)cc3Br)C[C@@H]12` [Example 123, (S)-2-(2-(2-bromo-4-(trifluoromethoxy)phenoxy)acetyl)-8-(3-(trifluoromethyl)phenyl)-1,3,4,12a-tetrahydrobenzo[e]pyrazino[1,2-a][1,4]diazepine-6,12 (2H, 11H)-dione], in the data set with HEK293T cells, the cytotoxicity result is given as “some toxicity”. In addition, the “mouse RXFP2 activation (cAMP, luciferase)” value on mouse RXFP2 is reported as “activate the mouse RXFP2 receptor at levels comparable to human RXFP2 activation”. In addition, the “RXFP1 cAMP response (activation of RXFP1)” value at RXFP1 is given as “do not activate”.
As for `O=C1Nc2ccc(-c3cc(C(F)(F)F)cc(C(F)(F)F)c3)cc2C(=O)N2CCN(C(=O)COc3ccc(OC(F)(F)F)cc3Br)C[C@@H]12` [Example 158, (S)-8-(3,5-Bis(trifluoromethyl)phenyl)-2-(2-(2-bromo-4-(trifluoromethoxy)phenoxy)acetyl)-1,3,4,12a-tetrahydrobenzo[e]pyrazino[1,2-a][1,4]diazepine-6,12 (2H, 11H)-dione], the cytotoxicity result in the data set with HEK293T cells is given as “some toxicity”; in data set [1] (25 μM), “minimal toxicity”; in data set [1] (setting [2]), “not toxic”. For the same molecule, on mouse RXFP2, the “mouse RXFP2 activation (cAMP, luciferase)” value is given as “activate the mouse RXFP2 receptor at levels comparable to human RXFP2 activation”. The “RXFP1 cAMP response (activation of RXFP1)” value on RXFP1 is on record as “do not activate”.
`O=C1Nc2ccc(-c3cc(C(F)(F)F)cc(C(F)(F)F)c3)cc2C(=O)N2CCN(C(=O)COc3ccc(OC(F)(F)F)cc3I)C[C@@H]12` [Example 187, (S)-8-(3,5-bis(trifluoromethyl)phenyl)-2-(2-(2-iodo-4-(trifluoromethoxy)phenoxy)acetyl)-1,3,4,12a-tetrahydrobenzo[e]pyrazino[1,2-a][1,4]diazepine-6,12 (2H, 11H)-dione]: the cytotoxicity result in data set [1] (25 μM) is “minimal toxicity”; in data set [1] (setting [2]), “not toxic”.

The values are drawn from patent US20250134907A1, “FUSED DIAZEPINES AS AGONISTS OF THE INSULIN-LIKE 3 (INSL3) PEPTIDE RECEPTOR RXFP2 AND METHODS OF USE THEREOF” (The United States of America,as represented by the …, priority 2022, published 2025).
